According to patent EP0533352A2 (LYNXVALE LIMITED, priority 1991, dated 1993):
Where two headings read alike, the source gives them in different places.

Assays:
[1] = system: Rabbit urinary bladder smooth muscle strips; assay: Nerve mediated contractions of rabbit urinary bladder muscle strips induced by electrical field stimulation; assay type: cell-based; conditions: for effect on the frequency response curve: 1 to 40 Hz
[2] = system: carbachol (5x10⁻⁶M) induced muscle contraction; assay: Carbachol mediated muscle contractions of rabbit bladder muscle strips; assay type: cell-based; conditions: GABA: 10 strips, not in 6 strips, baclofen: 6 strips, not in 3 strips

## NCC(CC(=O)O)c1ccc(Cl)cc1 (racemic) [(±) baclofen]
[1]
  EC₅₀ for inhibition of muscle contraction induced by electrical field stimulation: 7.26 (±1.2)x10⁻⁶ M
  maximum inhibition of muscle contraction induced by electrical field stimulation: 26.5(±1.58) %
[1]; 1x10⁻⁴M baclofen, n=13
  effect on the frequency response curve: significant inhibitory effect
[2]
  inhibition of carbachol induced muscle contraction: able to inhibit the muscle contraction

## NCCCP(O)O [3-aminopropylphosphonous acid]
[1]; Oryctolagus cuniculus, average over seven experiments, preliminary experiments, read-out: EC₅₀ for inhibition of electrically stimulated contraction
  EC50: 250 ± 160 nM
[1]; percentage inhibition of control contraction, 10 Hz, 0.2 ms pulse width, 30V for 3 s, mean ± S.E.M.
  maximum inhibition of muscle contraction induced by electrical field stimulation: 45 ± 18%

## NC1=N[C@H](O)[C@H]2[C@H]3O[C@]4(O)O[C@@H]([C@@H](O)[C@@]2(N1)[C@@H]4O)[C@]3(O)CO [tetrodotoxin]
[1]
  effect on contractions obtained by electrical field stimulation: abolishing the contractions

## NCC(O)(CS(=O)(=O)O)c1ccc(Cl)cc1 (centres unmarked) [2-hydroxysaclofen]
[1]
  antagonism of the inhibition produced by GABA (change of EC₅₀): significant antagonism
  change in the maximum response of GABA: no significant difference

## NCCCC(=O)O [GABA, gamma amino butyric acid]
[1]; 1x10⁻⁵ GABA, n=15
  effect on the frequency response curve: significant right shift

## NCc1cc(=O)[nH]o1 [Muscimol, muscimol]
[1]; concentration range of 1x10⁻⁸ to 1x10⁻⁵M, n=5
  inhibitory effect on nerve mediated muscle contraction: no inhibitory effect
